Source: ChEMBL document CHEMBL1201862, “PubChem BioAssay data set” (2004)
Active and inactive are the calls of the source.

Experiments:
[1] = THP-1 cell cytotoxicity, dose response, cytotoxicity control for Vif-APOBEC3G degradation inhibitor project, THP-1 cells (AID 1117359); format: functional; settings: Human immunodeficiency virus 1, THP-1
[2] = inhibitors of firefly luciferase expression or activity, dose response, H4 neuroglioma cells, luminescence (AID 1990); format: functional, cell-based
[3] = luciferase reporter signal reduction – luminescence, H4-C neuroglioblastoma cells, dose response (AID 2458); format: functional, cell-based;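 further: H4 neuroglioblastoma cells stably carrying a luciferase reporter gene fusion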
cells [4] = format: functional, cell-based
[5] = Luminescence Cell-Based Dose Response HTS to Identify Inhibitors of 5'UTR Stem-Loop Driven Prion Protein mRNA Translation in H4 Neuroglioblastoma Cells. [Related pubchem assays: 1827 (Project Summary), 1813 (Primary HTS)]; format: functional
[6] = inhibitors of SNCA 5'UTR-driven reporter translation, confirmation, H4 neuroglioma cells, luminescence (AID 1988); format: functional, cell-based
[7] = growth suppression of PTEN-null colon cells, dose response, cell-based, HCT116 PTEN knockout (AID 1047); format: functional;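 further: HCT116 colon tumor cells with PTEN knocked out; cells exposed to compound for 60 hours before readout; potency for loss of cell viability measured by luminescence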
[8] = growth suppression of beta-catenin-knockout colon cells, dose response, cell-based, HCT116, human colon tumor (AID 1045); format: functional;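 further: HCT116 colon tumor cells with beta catenin knocked out; cells exposed to compound for 60 hours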
[9] = inhibitors of SNCA 5'UTR-driven translation, confirmation, luminescence, H4 neuroglioblastoma cells, dose confirmation (AID 2454); format: functional, cell-based;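 further: H4 neuroglioblastoma cells carrying an alpha-synuclein 5'UTR luciferase reporter; potency for inhibition of the luciferase signal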
[10] = Shn3 3'UTR reporter inhibitors, dose response, cell-based, Clone20 osteoblasts, firefly luciferase, cherry-picked (AID 624132); format: functional;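 further: firefly luciferase luminescence from reporter carrying the Shn3 3'UTR in osteoblasts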
[11] = HepG2 cell cytotoxicity, dose response, cytotoxicity control for Shn3 inhibitor project, CellTiter-Glo, cherry-picked (AID 624134); format: functional, cell-based
[12] = control 3'UTR Renilla luciferase suppression, dose response, counter-screen for Shn3 inhibitor project, cell-based, Clone20-Shn3RL, cherry-picked (AID 624133); format: functional
Paired box protein Pax-8 = Paired box protein Pax-8 (Homo sapiens, UniProt Q06710); assay: inhibitors of PAX8-driven TPO luciferase reporter, dose response, RMG-I cells, cherry-pick (AID 687027); format: functional, cell-based;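 further: luciferase reporter driven by Pax8 target thyroperoxidase promoter measured by SteadyGlo luminescence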
[13] = cytotoxicity in HEK-293T cells, dose response, cytotoxicity control for TCR NF-kB inhibitor project, luminescence, T-cell screen hits (AID 489026); format: functional, cell-based;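 further: cells exposed to compound about 14 hours before the viability readout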
[14] = THP-1 cell cytotoxicity, dose response, cytotoxicity control for non-replicating M. tuberculosis project (AID 489025); format: functional
[15] = HepG2 cell cytotoxicity, dose response, cytotoxicity control for non-replicating M. tuberculosis project (AID 489018); format: functional; settings: Mycobacterium tuberculosis
[16] = Vero E6 cell cytotoxicity, dose response, cytotoxicity control for non-replicating M. tuberculosis project, secondary assay (AID 492998); format: functional, VeroE6; settings: Vero C1008
cells [17] = format: functional
INS1 = assay: beta cell apoptosis inhibitors, cytokine rescue, dose response, luminescence, retest (AID 449756); format: functional, cell-based; settings: Rattus norvegicus;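 further: cell death triggered by IL-1 beta plus TNF-alpha plus IFN-gamma mixture; protective hits raise ATP signal compared with cytokine alone wells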
[18] = target: DNA dC->dU-editing enzyme APOBEC-3G (Homo sapiens, UniProt Q9HC16); assay: Dose Response confirmation of small molecule APOBEC3G DNA Deaminase Inhibitors via a fluorescence-based single-stranded DNA deaminase assay. [Related pubchem assays (depositor defined):AID493012, AID493028]; format: functional
[19] = target: T1, Rac GTPase-activating protein 1 (Homo sapiens, UniProt Q9H0H5); assay: MgcRacGAP GTPase-activating activity inhibitors, confirmation, biochemical, ADP Hunter fluorescence, primary and confirmatory (AID 624330); format: functional
T1 sequence (Q9H0H5 whole entry): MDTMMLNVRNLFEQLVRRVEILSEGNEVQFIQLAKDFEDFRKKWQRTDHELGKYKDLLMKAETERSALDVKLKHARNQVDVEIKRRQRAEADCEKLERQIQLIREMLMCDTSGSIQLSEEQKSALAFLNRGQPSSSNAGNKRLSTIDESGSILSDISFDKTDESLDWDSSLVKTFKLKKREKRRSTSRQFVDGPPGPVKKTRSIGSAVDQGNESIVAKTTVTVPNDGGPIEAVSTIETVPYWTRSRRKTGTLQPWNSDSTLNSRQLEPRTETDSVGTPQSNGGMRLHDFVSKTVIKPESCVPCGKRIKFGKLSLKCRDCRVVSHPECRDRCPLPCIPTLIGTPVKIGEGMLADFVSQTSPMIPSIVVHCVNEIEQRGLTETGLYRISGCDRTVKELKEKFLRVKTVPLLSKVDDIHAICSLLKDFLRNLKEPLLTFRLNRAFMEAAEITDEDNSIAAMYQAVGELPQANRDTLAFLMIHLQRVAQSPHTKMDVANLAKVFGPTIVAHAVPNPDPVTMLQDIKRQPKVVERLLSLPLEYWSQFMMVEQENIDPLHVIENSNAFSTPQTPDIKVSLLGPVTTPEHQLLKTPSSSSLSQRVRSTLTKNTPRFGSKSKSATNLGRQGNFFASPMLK

Paired box protein Pax-8, sequence (Q06710 whole entry): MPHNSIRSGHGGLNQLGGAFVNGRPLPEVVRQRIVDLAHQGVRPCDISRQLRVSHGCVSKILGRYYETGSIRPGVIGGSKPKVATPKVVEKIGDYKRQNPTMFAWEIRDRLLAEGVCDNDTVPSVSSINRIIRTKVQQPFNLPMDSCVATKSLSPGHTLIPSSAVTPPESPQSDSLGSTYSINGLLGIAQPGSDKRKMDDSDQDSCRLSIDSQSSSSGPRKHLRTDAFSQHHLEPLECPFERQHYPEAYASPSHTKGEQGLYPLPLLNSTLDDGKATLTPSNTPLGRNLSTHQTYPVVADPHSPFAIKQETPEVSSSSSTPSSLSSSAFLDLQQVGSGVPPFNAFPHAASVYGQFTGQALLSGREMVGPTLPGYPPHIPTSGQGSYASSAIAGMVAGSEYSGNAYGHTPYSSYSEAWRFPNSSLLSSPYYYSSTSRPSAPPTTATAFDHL
DNA dC->dU-editing enzyme APOBEC-3G, sequence (Q9HC16 whole entry): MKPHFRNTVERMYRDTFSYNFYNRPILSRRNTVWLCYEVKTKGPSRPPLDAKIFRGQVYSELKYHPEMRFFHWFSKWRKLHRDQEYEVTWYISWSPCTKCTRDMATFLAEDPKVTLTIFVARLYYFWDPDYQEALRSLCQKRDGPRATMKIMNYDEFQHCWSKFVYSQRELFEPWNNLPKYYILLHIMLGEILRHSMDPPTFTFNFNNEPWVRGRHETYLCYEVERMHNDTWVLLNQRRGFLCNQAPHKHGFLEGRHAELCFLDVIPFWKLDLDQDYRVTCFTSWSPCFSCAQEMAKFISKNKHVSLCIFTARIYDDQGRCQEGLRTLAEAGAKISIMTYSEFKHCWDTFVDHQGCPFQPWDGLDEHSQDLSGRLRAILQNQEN

O=C(Nc1ccncc1)C1CCN(S(=O)(=O)c2c(Cl)cccc2Cl)CC1
CC50 [1]: > 40000 nM (active)

CCCCN(CCCC)CCCN1CC(=O)N2[C@@H](Cc3c([nH]c4ccccc34)C2(C)C)C1=O
CC50 [1]: > 40000 nM (active)

Cc1cc(C2=NN=C(NC3CC3)SC2)c(C)n1-c1ccccc1F
EC50 [2]: < 100 nM (active)
EC50 [3]: 5 nM (active)
EC50 (cells [4]): 16 nM (active)
EC50 [5]: < 100 nM (active)
EC50 [6]: < 100 nM (active)
EC50 [7]: 17100 nM (active)
EC50 [8]: 16700 nM (active)
EC50 [9]: 4 nM (active)
AC50 [10]: < 260 nM (active)
AC50 [11]: 28000 nM (active)
AC50 [12]: 6070 nM (active)
AC50 (Paired box protein Pax-8): < 260 nM (active)

Cc1cc(NC(=O)CSc2nc3ccccc3c(=O)n2C2CCCC2)no1
EC50 [2]: 4730 nM (inconclusive)
EC50 [3]: 1500 nM (active)
EC50 (cells [4]): > 12000 nM (not active)
EC50 [5]: < 100 nM (active)
EC50 [6]: < 100 nM (active)
EC50 [9]: 1890 nM (inconclusive)
IC50 [13]: > 80000 nM (inactive)

CCCCCn1c(=O)c(C(=O)Nc2nc3ccccc3[nH]2)c(O)c2ccccc21
CC50 [14]: 6690 nM (active)
CC50 [15]: > 20000 nM (active)
CC50 [16]: 6210 nM (active)
IC50 (cells [17]): 7700 nM (active)
AC50 (INS1): 6540 nM (active)

CN(C)c1ccc2c(c1)OC(N)=C(C#N)C2c1cccc(F)c1 (configuration not stated)
EC50 [2]: < 100 nM (active)
EC50 [3]: 228 nM (active)
EC50 (cells [4]): 233 nM (active)
EC50 [5]: < 100 nM (active)
EC50 [6]: < 100 nM (active)
EC50 [9]: 338 nM (active)
IC50 [13]: 40400 nM (inactive)

CCOc1ccc2[nH]c(C(=O)N/N=C/c3ccc(OC)cc3)cc2c1
EC50 [2]: 7080 nM (active)
EC50 [3]: 1120 nM (active)
EC50 (cells [4]): 1400 nM (active)
EC50 [5]: 273 nM (active)
EC50 [6]: < 100 nM (active)
EC50 [9]: 3250 nM (active)

CC(C)Cn1c(-c2ccc(Br)o2)n[nH]c1=S
IC50 [18]: 2830 nM (active)
IC50 [19]: 105000 nM (active)

CCOC(=O)c1c(NC(=O)CCN2CCOCC2)sc(C)c1-c1ccccc1
CC50 [1]: > 40000 nM (active)
